Laboratory results reported in ChEMBL document CHEMBL2094269, “WEHI/Eskitis Trypanosoma b. brucei screening data”.

Columns and labels:
[1] = DNDI: Cytotoxicity against human MRC-5 lung fibroblast cells.; settings: IC50
[2] = tested on: Trypanosoma brucei brucei; test: microbe, parasite or virus in culture; assay type: functional, organism-based, STIB 795
Description: DNDI: Inhibition of Human African Trypanosomiasis (HAT), STIB 795, in vitro

CC(C)=CC1C(C(=O)O/N=C(\N)c2ccccc2)C1(C)C (configuration not stated)
IC50 [1]: > 41.7 µM | IC50 ([2]; Trypanosoma brucei, STIB 795): 1.16 µM

CN(C)CCCNc1c2c(nc3ccccc13)CCC2
IC50 [1]: 5.76 µM | IC50 ([2]; Trypanosoma brucei, STIB 795): 1.82 µM

COc1ccc(C(=N)NOC(=O)c2cccs2)cc1
IC50 [1]: > 41.7 µM | IC50 ([2]; Trypanosoma brucei, STIB 795): 1.84 µM

Cc1cc(C)c(C(=O)CC(N2CCCCC2)C(F)(F)F)c(=O)[nH]1 (configuration not stated)
IC50 [1]: > 20.8 µM | IC50 ([2]; Trypanosoma brucei, STIB 795): 2.27 µM

COc1ccc2c(-c3ccccc3)cc(NCCCN(C)C)nc2c1
IC50 [1]: > 20.8 µM | IC50 ([2]; Trypanosoma brucei, STIB 795): 3.67 µM

CCc1ccc(/C=N\n2cnnc2)cc1
IC50 [1]: > 41.7 µM | IC50 ([2]; Trypanosoma brucei, STIB 795): 0.647 µM

CN(C)CCCNCCCc1ccc(C(C)(C)C)cc1
IC50 [1]: 8.02 µM | IC50 ([2]; Trypanosoma brucei, STIB 795): 0.079 µM

c1ccc(Sc2cccc3ccccc23)c(CNC2=NCCN2)c1
IC50 [1]: > 20.8 µM | IC50 ([2]; Trypanosoma brucei, STIB 795): 0.428 µM

CCC1CO/C(=C2\Sc3ccccc3C2=O)N1 (configuration not stated)
IC50 [1]: > 20.8 µM | IC50 ([2]; Trypanosoma brucei, STIB 795): 5.08 µM

Oc1c(CN2CCCCC2)ccc2cccnc12
IC50 [1]: > 4.17 µM | IC50 ([2]; Trypanosoma brucei, STIB 795): 3.78 µM

COc1ccccc1N1CCN(Cc2cc(Cl)c3cccnc3c2O)CC1
IC50 [1]: > 4.17 µM | IC50 [2]: > 10.4 µM | IC50 ([2]; Trypanosoma brucei, STIB 795): 6.05 µM

O=C(NCCCN1CCCC1)c1ccc(-c2ccccc2)s1
IC50 [1]: > 20.8 µM | IC50 ([2]; Trypanosoma brucei, STIB 795): 5.51 µM

O=C(N/N=C/c1cc(Cl)ccc1O)c1ccc(F)cc1
IC50 [1]: > 20.8 µM | IC50 ([2]; Trypanosoma brucei, STIB 795): ≤ 10.4 µM

O=C(NCCc1csc(-c2cccc(F)c2)n1)c1cccs1
IC50 [1]: > 41.7 µM | IC50 ([2]; Trypanosoma brucei, STIB 795): ≤ 0.043 µM

CC[N+]1=C(/C=C/N(C)C)c2cccc3cccc1c23
IC50 [1]: > 20.8 µM | IC50 ([2]; Trypanosoma brucei, STIB 795): 3.41 µM

c1ccc(Nc2nc(-c3ccccc3)c3ccccn23)cc1
IC50 [1]: > 41.7 µM | IC50 ([2]; Trypanosoma brucei, STIB 795): 5.38 µM

Cc1cc(Cl)c2c(N)c(C)cc(C)c2n1
IC50 [1]: > 41.7 µM | IC50 ([2]; Trypanosoma brucei, STIB 795): 4.09 µM

CCc1cc(C2CCCN2C(=O)c2c(F)cccc2Cl)on1 (configuration not stated)
IC50 [1]: > 41.7 µM | IC50 ([2]; Trypanosoma brucei, STIB 795): 5.12 µM

CCCN(CCC)C(=O)Cn1ccc(=N)c2ccccc21
IC50 [1]: > 41.7 µM | IC50 ([2]; Trypanosoma brucei, STIB 795): 3.52 µM

Cc1cccc(NC(=O)Cn2cc(CO)c3ccccc32)c1
IC50 [1]: > 4.17 µM | IC50 ([2]; Trypanosoma brucei, STIB 795): 5.39 µM

CC(Nc1nc(N2CCNCC2)nc2ccccc12)c1ccccc1 (configuration not stated)
IC50 [1]: > 4.17 µM | IC50 ([2]; Trypanosoma brucei, STIB 795): 1.47 µM

COc1cc(Cl)cc2c1Sc1ccccc1CC2N1CCNCC1 (configuration not stated)
IC50 [1]: > 20.8 µM | IC50 ([2]; Trypanosoma brucei, STIB 795): 4.17 µM

Cc1c2[nH]c3ccccc3c2c2c([n+]1C)CC(C)(C)CC2
IC50 [1]: > 41.7 µM | IC50 ([2]; Trypanosoma brucei, STIB 795): 8.67 µM

NCCCCCOC(c1ccc(F)cc1)c1ccc(F)cc1
IC50 [1]: > 41.7 µM | IC50 ([2]; Trypanosoma brucei, STIB 795): 5.53 µM

COC12C=CC(CC1)C1C(=O)c3cccc(O)c3C(=O)C12 (configuration not stated)
IC50 [1]: > 20.8 µM | IC50 ([2]; Trypanosoma brucei, STIB 795): 2.48 µM

CC(C)CC(=O)/C(=C/c1ccc(Cl)cc1Cl)n1cncn1
IC50 [1]: > 20.8 µM | IC50 ([2]; Trypanosoma brucei, STIB 795): 2.27 µM

CCCC[n+]1cc(-c2ccccc2)nc(N2CCCCC2)n1
IC50 [1]: > 41.7 µM | IC50 ([2]; Trypanosoma brucei, STIB 795): 7.6 µM

CC[n+]1c(/C=C/c2ccc(N(C)C)cc2)sc2ccc(C(=O)OC)cc21
IC50 [1]: > 20.8 µM | IC50 ([2]; Trypanosoma brucei, STIB 795): 0.131 µM

Cc1cccc(-n2nnn(C3CC(=O)C4OCC3O4)c2=S)c1C (configuration not stated)
IC50 [1]: > 41.7 µM | IC50 ([2]; Trypanosoma brucei, STIB 795): 5.25 µM

O=C(NC(c1ccco1)c1cc(Cl)c2cccnc2c1O)c1cccnc1 (configuration not stated)
IC50 [1]: > 20.8 µM | IC50 ([2]; Trypanosoma brucei, STIB 795): 0.053 µM

COc1ccc(C(=O)O/N=C(\N)c2ccccc2Cl)cc1OC
IC50 [1]: > 20.8 µM | IC50 ([2]; Trypanosoma brucei, STIB 795): 0.686 µM

CN(C)c1ccc2nc3ccc(=[N+](C)C)cc-3sc2c1 [METHYLENE BLUE CATION]
IC50 [1]: > 2.08 µM | IC50 ([2]; Trypanosoma brucei, STIB 795): < 0.02 µM

CCOC(=O)N/N=C\c1ccc(-c2cccc(C(F)(F)F)c2)o1
IC50 [1]: > 41.7 µM | IC50 ([2]; Trypanosoma brucei, STIB 795): 3.19 µM

CCCC(=O)Nc1ccc(Cl)c(-c2nc3ncccc3o2)c1
IC50 [1]: > 41.7 µM | IC50 ([2]; Trypanosoma brucei, STIB 795): 0.851 µM

CCOc1ccc2nc3cc(NCc4ccccc4OC)ccc3c(N)c2c1
IC50 [1]: > 20.8 µM | IC50 ([2]; Trypanosoma brucei, STIB 795): 4.58 µM

COc1ccc(C2=Nn3c([n+](C)c4cc(C)c(C)cc43)SC2)cc1OC
IC50 [1]: > 20.8 µM | IC50 ([2]; Trypanosoma brucei, STIB 795): 5.33 µM

CC(=O)CC1(O)C(=O)Nc2ccc(I)cc21 (configuration not stated)
IC50 [1]: > 41.7 µM | IC50 ([2]; Trypanosoma brucei, STIB 795): 3.13 µM

CCOC(=O)c1ccc(Nc2nnc(C(C)(C)C)c(O)n2)cc1
IC50 [1]: > 41.7 µM | IC50 ([2]; Trypanosoma brucei, STIB 795): 10.2 µM

Cc1c(C)c(C)c2c(CC(C)N)c[nH]c2c1C (configuration not stated)
IC50 [1]: > 41.7 µM | IC50 ([2]; Trypanosoma brucei, STIB 795): 4.24 µM

CN(CCCNC(=O)c1n[nH]c2c1COc1ccccc1-2)C1CCCCC1
IC50 [1]: > 20.8 µM | IC50 ([2]; Trypanosoma brucei, STIB 795): 5.06 µM

COC(=O)c1ccc2c(c1)C(C)(C)C(/C=C/c1c(C)[nH]c3ccccc13)=[N+]2C
IC50 [1]: > 4.17 µM | IC50 ([2]; Trypanosoma brucei, STIB 795): 2.97 µM

CCN(CC)CCNc1cc(C)nc2c1C(=O)C(=O)C=C2N1CCCCC1
IC50 [1]: 6.25 µM | IC50 ([2]; Trypanosoma brucei, STIB 795): 4.07 µM

Cc1cc(F)ccc1NC(=O)Nc1ccc(-c2noc(C3CCC3)n2)cc1
IC50 [1]: > 41.7 µM | IC50 ([2]; Trypanosoma brucei, STIB 795): 4.73 µM

Cc1nc2sccn2c1C(=O)N/N=C/c1c(O)ccc2ccccc12
IC50 [1]: > 4.17 µM | IC50 ([2]; Trypanosoma brucei, STIB 795): 1.53 µM

CN1CCc2nc3sc(C(=O)c4ccc(F)cc4)c(N)c3cc2C1
IC50 [1]: > 41.7 µM | IC50 ([2]; Trypanosoma brucei, STIB 795): 6.35 µM

CCOC(=O)N1CCN(C2=C(NC(C)=O)C(=O)c3ccccc3C2=O)CC1
IC50 [1]: > 41.7 µM | IC50 ([2]; Trypanosoma brucei, STIB 795): 5.36 µM

CN(C)CCCn1c(N)c(-c2nc3ccccc3[nH]2)c2nc(C#N)c(C#N)nc21
IC50 [1]: > 41.7 µM | IC50 ([2]; Trypanosoma brucei, STIB 795): 4.08 µM

COc1ccccc1C1N=C(c2ccc(Cl)cc2)CC(c2ccccc2O)N1 (configuration not stated)
IC50 [1]: > 41.7 µM | IC50 ([2]; Trypanosoma brucei, STIB 795): 5.24 µM
